Key:
[1] = target: T1, human β2-adrenergic receptor (Homo sapiens, UniProt P07550); test: Test Case 3-B: human β2-adrenergic receptor agonist activity; format: cell-based; conditions: read-out: β2 receptor I.A.
T1 construct: expressed in transfected cells; host or cells: CHO (Chinese hamster ovary) cells, pcDNA3
Experimental: Measurement of Human β2-Adrenergic Receptor Agonist Activity
The human β2-adrenergic receptor agonist activity is measured by the same method as in Test Case 1-B using CHO (Chinese hamster ovary) cells transfected by a human β2 gene inserted in pcDNA3 (Invitrogen).

[2] = system: common marmoset isolated bladder smooth muscle; test: Test Case 7: common marmoset isolated bladder smooth muscle relaxation test; conditions: KCl 40 mmol/L contracted marmoset bladder, papaverine 10^−4 mol/L relaxation = 100%
Experimental: Common Marmoset Isolated Bladder Smooth Muscle Relaxation Test
After sacrificing common marmosets (Japan CLEA) by exsanguination, they are laparotomized and the urinary bladder is removed. […] The specimens are loaded with one gram of resting tension and stabilized for 30 or more minutes. After the resting tension of the specimen has stabilized, a final concentration of 40 mmol/L of KCl is added repeatedly, and it is confirmed that the contraction in response to KCl has basically become constant. […] Taking that relaxation response as 100%, the relaxation rate (%) at test compound concentrations of […] is calculated.

[3] = system: pentobarbital-anesthetized rats; test: Test Case 9: effects on the blood pressure and heart rate in pentobarbital-anesthetized rats; format: in vivo, rat; conditions: anesthetized male SD rats; 3 mg/kg intravenous over 30 seconds; maximum change, mean±standard deviation
Experimental: Effects on the blood pressure and heart rate in pentobarbital-anesthetized rats
The blood pressure and heart rate of rats under pentobarbital anesthesia are measured, and the effects of rapid intravenous administration of the test compound on the blood pressure and heart rate can be studied. After anesthetizing male SD rats (Japan SLC) by intraperitoneal administration of 50 mg/kg of pentobarbital sodium (Tokyo Chemical Industry Co., Ltd.), 25 mg/kg of pentobarbital sodium is administered subcutaneously as maintenance anesthesia. The left femoral vein is exposed and stripped, and a SP10 polyethylene tube filled with saline (connected to a three-way stopcock via a ¼ venous needle) is inserted and left in place in the vein.
The inside of the left thigh is cut, and the femoral artery is exposed and stripped. A polyethylene tube filled with heparinized physiological saline solution (SP31, connected to a three-way stopcock via a Terumo injection needle 22G) is inserted and connected to a pressure transducer. The blood pressure is measured from the pressure transducer via a strain pressure amplifier (AP-641G, Nihon Kohden). The heart rate is measured with the pulse wave of the blood pressure as a trigger via a heart rate counter (AT-601G, Nihon Kohden). The blood pressure, mean blood pressure, and heart rate are output to a recorder and recorded. Furthermore, the mean blood pressure is recorded via the strain pressure amplifier (AP-641G) using the formula {[…]}.
Specifically, 3 mg/mL of test compound is administered rapidly at a volume of 1 mL/kg. The relative value (%) of the values at each point in time versus the mean blood pressure and heart rate before beginning administration are determined for each individual, and the mean±standard deviation of the relative value (%) at the time of the maximum change in each parameter is determined.

T1 sequence (P07550 whole entry): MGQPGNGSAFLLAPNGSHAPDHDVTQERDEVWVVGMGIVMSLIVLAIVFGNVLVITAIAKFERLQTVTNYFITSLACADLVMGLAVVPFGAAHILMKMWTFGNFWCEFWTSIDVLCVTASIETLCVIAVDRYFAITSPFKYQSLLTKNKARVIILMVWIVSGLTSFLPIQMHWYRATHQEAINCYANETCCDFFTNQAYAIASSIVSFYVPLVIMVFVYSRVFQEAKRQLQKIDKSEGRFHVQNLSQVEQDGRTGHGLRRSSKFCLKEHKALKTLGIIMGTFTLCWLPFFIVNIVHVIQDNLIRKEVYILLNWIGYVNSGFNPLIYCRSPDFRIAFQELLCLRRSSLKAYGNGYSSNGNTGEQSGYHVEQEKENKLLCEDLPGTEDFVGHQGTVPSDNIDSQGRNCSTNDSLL

SMILES	Emax [1] [%]	relaxant activity (%) 10^−4M [2] [%]	relaxant activity (%) 10^−5M [2] [%]	increase in MBP (%) [3] [%]
Cc1n[nH]c2cc(OCCNC[C@H](O)c3cccc(NS(=O)(=O)C4CCC4)c3)ccc12 [ex3, (R)—N-(3-(1-hydroxy-2-(2-(3-methylindazol-6-yloxy)ethylamino)ethyl)phenyl)cyclobutanesulfonamide]	1	63.2	36.6	2.0 ± 1.6
O=S(=O)(Nc1cccc([C@@H](O)CNCCOc2ccc3c(OC(F)F)n[nH]c3c2)c1)C1CC1 [ex4, (R)—N-(3-(2-(2-(3-(difluoromethoxy)-indazol-6-yloxy)ethylamino)-1-hydroxyethyl)phenyl)cyclopropanesulfonamide]	1	53.7	30.1	2.4 ± 2.2
Cc1n[nH]c2cc(OCCNC[C@H](O)c3cccc(NS(=O)(=O)c4ccccc4F)c3)ccc12 [ex235, (R)-2-fluoro-N-(3-(1-hydroxy-2-(2-(3-methylindazol-6-yloxy)ethylamino)ethyl)phenyl)benzenesulfonamide]	2	55.3	24.3	3.4 ± 1.0

Reference: patent US20120225909A1, “INDAZOLE ANALOG” (priority 2009, published 2012)
